Reference: US7498319B2, “Phosphinic acid derivatives” (Novartis AG, priority 2003, dated 2009)
Structures can show the parent of a compound that is named as a salt.

Assays:
[1] = test system: "epilepsy-like" discharges of pyramidal cells; test: penicillin-induced "epileptic" hippocampus section preparation (electrophysiology); details: in vitro; concentration of 6 μM

Row | melting point | Structure (SMILES) | effect on "epilepsy-like" discharges of pyramidal cells [1]
1 | 226 to 228 °C | O=c1cc(CNC[C@H](O)CP(=O)(O)Cc2ccccc2)cc[nH]1 (as salt: hydrochloride) [Example 10, {2-(S)-hydroxy-3-[(2-oxo-1,2-dihydro-pyridin-4-ylmethyl)-amino]-propyl}-(benzyl)-phosphinic acid] | –
2 | – | NCC(CC(=O)O)c1ccc(Cl)cc1 (stereo not shown) [baclofen] | inhibits
3 | 192 to 195 °C | COc1cc(CNC[C@H](O)CP(=O)(O)Cc2ccccc2)ccn1 [Example 4, {3-[(2-methoxy-4-pyridylmethyl)-amino]-2-(S)-hydroxy-propyl}-(benzyl)phosphinic acid] | –
4 | 159 to 160 °C | COc1cc(CNC[C@H](O)CP(=O)(O)CC2CCCCC2)ccn1 (as salt: hydrochloride) [Example 2, {3-[(2-methoxy-4-pyridylmethyl)-amino]-2-(S)-hydroxy-propyl}-(cyclohexylmethyl)-phosphinic acid] | –
